Here are results for 10 compounds from PubChem BioAssay (NCI).

Test systems include OVCAR-5 ovarian; 786-0 renal; SK-MEL-28 melanoma; HCT-116 colon; NCI-H460 lung; OVCAR-4 ovarian; COLO 205 colon; HCC-2998 colon; A549 NSCLC; IGROV1 ovarian.
What all share (experiment): growth of human tumour cells (NCI), 48 h

SMILES strings stand for the structures.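 These data come from cells grown in 96-well plates and exposed to compound for 48 hours at five concentrations. At the GI50, growth is halved. TGI denotes the concentration required for complete inhibition of growth.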

Consider `COc1ccccc1NC(=O)C(CC(C(=O)Nc1ccccc1OC)/C(C)=N/Nc1ccc([N+](=O)[O-])cc1[N+](=O)[O-])/C(C)=N/Nc1ccc([N+](=O)[O-])cc1[N+](=O)[O-]` (configuration not stated), for which the TGI in the assay with OVCAR-5 ovarian, in the assay with 786-0 renal, in the assay on SK-MEL-28 melanoma, in the assay with HCT-116 colon, in the assay on NCI-H460 lung and in the assay on OVCAR-4 ovarian was more than 100 µM in each case. In addition, the TGI in the assay with COLO 205 colon, in the assay with HCC-2998 colon, in the assay with A549 NSCLC and in the assay on IGROV1 ovarian was more than 100 µM in each case.

`O=C(c1ccc(Cl)cc1)C1OC12C(=O)Nc1ccccc12` (configuration not stated): the TGI came out at 36.2 µM with OVCAR-5 ovarian; 26.9 µM in the assay with 786-0 renal; 29.5 µM with SK-MEL-28 melanoma; 13.6 µM with HCT-116 colon; 47.1 µM in the assay with NCI-H460 lung; 34.1 µM in the assay on OVCAR-4 ovarian. The TGI in the assay with COLO 205 colon worked out at 8.53 µM; with HCC-2998 colon it was 34.1 µM; with A549 NSCLC it was 58.6 µM; in the assay with IGROV1 ovarian, 39.1 µM.

Take `Cc1nc(N)nc2ccccc12`: the TGI with OVCAR-5 ovarian, in the assay on 786-0 renal, with SK-MEL-28 melanoma, in the assay with HCT-116 colon, in the assay with NCI-H460 lung and in the assay with OVCAR-4 ovarian was more than 100 µM each time. The TGI with COLO 205 colon, in the assay with HCC-2998 colon, with A549 NSCLC and in the assay with IGROV1 ovarian was more than 100 µM throughout. Also, the GI50 in the assay on COLO 205 colon and in the assay on HCC-2998 colon was more than 100 µM in each case.

In the case of `N#CC1C=Cc2ccccc2N1C(=O)Oc1ccccc1` (configuration not stated), the TGI with OVCAR-5 ovarian, with 786-0 renal, in the assay on SK-MEL-28 melanoma, with HCT-116 colon, with NCI-H460 lung and with OVCAR-4 ovarian was more than 100 µM each time. In addition, the TGI in the assay on COLO 205 colon, in the assay on HCC-2998 colon, in the assay with A549 NSCLC and with IGROV1 ovarian was more than 100 µM throughout.

Consider `COC(=O)/C(=N/NC(N)=O)C(C(=O)OC)C(=O)C(=O)Nc1ccc(Cl)cc1` (configuration not stated), for which the TGI in the assay on OVCAR-5 ovarian, in the assay with 786-0 renal, in the assay with SK-MEL-28 melanoma, in the assay on HCT-116 colon, in the assay on NCI-H460 lung and with OVCAR-4 ovarian was more than 100 µM throughout. The TGI with COLO 205 colon, in the assay with HCC-2998 colon, in the assay on A549 NSCLC and with IGROV1 ovarian was more than 100 µM in each case.

Take `Cc1cc(Cl)ccc1NS(=O)(=O)c1ccc(-c2cnc(C3CC3)o2)cc1`: the GI50 with OVCAR-5 ovarian was 0.572 µM; in the assay on 786-0 renal it was 0.561 µM; in the assay with SK-MEL-28 melanoma, 4.9 µM; in the assay on HCT-116 colon, 0.3 µM; in the assay on NCI-H460 lung it was 0.37 µM; in the assay with OVCAR-4 ovarian, 2.98 µM. Further, the GI50 in the assay on COLO 205 colon is 0.36 µM; with HCC-2998 colon it was 0.463 µM; with A549 NSCLC, 0.372 µM; in the assay with IGROV1 ovarian it was 0.365 µM. In addition, the TGI in the assay on OVCAR-5 ovarian was determined as 17.2 µM; in the assay on 786-0 renal it was 17.5 µM; in the assay with SK-MEL-28 melanoma, 22.8 µM; in the assay with HCT-116 colon, 11.9 µM; in the assay on NCI-H460 lung, 12.4 µM; with OVCAR-4 ovarian it was 20.6 µM. Besides, the TGI is 4.44 µM in the assay with COLO 205 colon, 12 µM in the assay on HCC-2998 colon, 17 µM in the assay on A549 NSCLC and 15.5 µM in the assay on IGROV1 ovarian.

`C/C=C1\C(=O)OC2CCN3CCC(COC(=O)C(C)(O)C(C)C1O)C23` (configuration not stated): the TGI in the assay with OVCAR-5 ovarian, in the assay with 786-0 renal, in the assay with SK-MEL-28 melanoma, with HCT-116 colon, in the assay with NCI-H460 lung and with OVCAR-4 ovarian was more than 100 µM in each case. Moreover, the TGI in the assay on COLO 205 colon, in the assay on HCC-2998 colon, with A549 NSCLC and in the assay with IGROV1 ovarian was more than 100 µM throughout.

For `CCCCCCCCCCCCCc1nn[nH]n1`, the TGI in the assay with OVCAR-5 ovarian came out at 33 µM; with 786-0 renal, 31.5 µM; in the assay on SK-MEL-28 melanoma, 31.7 µM; in the assay with HCT-116 colon, 31.7 µM; in the assay on NCI-H460 lung it was 40.6 µM; in the assay on OVCAR-4 ovarian, 35.4 µM. In addition, the TGI with COLO 205 colon came out at 36.6 µM; in the assay on HCC-2998 colon, 33.7 µM; with A549 NSCLC, 40.7 µM; in the assay with IGROV1 ovarian, 41.1 µM.

On to `C=[CH][Sn]([CH]=C)([O]c1cccc2cccnc12)[O]c1cccc2cccnc12`, for which the GI50 in the assay with OVCAR-5 ovarian is 5.16 µM; in the assay with 786-0 renal, 3.31 µM; with SK-MEL-28 melanoma, 4.03 µM; in the assay with HCT-116 colon, 1.12 µM; in the assay with NCI-H460 lung it was 3.11 µM; in the assay with OVCAR-4 ovarian it was 1.38 µM. Also, the GI50 with COLO 205 colon is 1.79 µM; in the assay with HCC-2998 colon, 4.44 µM; in the assay on A549 NSCLC, 3.37 µM; in the assay with IGROV1 ovarian, 3.31 µM. In addition, the TGI in the assay on OVCAR-5 ovarian stood at 13.8 µM; in the assay on 786-0 renal it was 9.29 µM; in the assay on SK-MEL-28 melanoma, 10.5 µM; in the assay with HCT-116 colon it was 2.46 µM; with NCI-H460 lung, 9.01 µM; with OVCAR-4 ovarian, 4.37 µM. For the same compound, the TGI was 3.19 µM in the assay on COLO 205 colon, 8.85 µM in the assay with HCC-2998 colon, 13.9 µM in the assay with A549 NSCLC and 11 µM with IGROV1 ovarian.

Take `CC1(C)OC2C(COS(N)(=O)=O)SC(n3cnc4cncnc43)C2O1` (configuration not stated): the GI50 with OVCAR-5 ovarian, in the assay with 786-0 renal, with SK-MEL-28 melanoma, in the assay on HCT-116 colon, in the assay on NCI-H460 lung and in the assay on OVCAR-4 ovarian was more than 100 µM throughout. Moreover, the GI50 in the assay on COLO 205 colon, with HCC-2998 colon, with A549 NSCLC and with IGROV1 ovarian was more than 100 µM throughout. Besides, the TGI in the assay on OVCAR-5 ovarian, in the assay with 786-0 renal, in the assay on SK-MEL-28 melanoma, in the assay with HCT-116 colon, in the assay with NCI-H460 lung and in the assay on OVCAR-4 ovarian was more than 100 µM in each case. Moreover, the TGI in the assay on COLO 205 colon, with HCC-2998 colon, with A549 NSCLC and in the assay on IGROV1 ovarian was more than 100 µM throughout.
